How the values were obtained:
Type in all cases: in vivo
ZFD rats [1] = experiment: ZFD rat model, paw cold response
Description: (§1) Forty (40) adult, male […] rats weighing 225-275 g at the start of the study are used in these experiments, including ten (10) lean, controls and thirty (30) ZFD rats. Animals are maintained in the vivarium at a controlled room temperature between 65 to 85° F. and a relative humidity between 30-70% under illumination by fluorescent lighting on a daily 12-hour light/dark cycle. All animals are maintained 2 per cage with free access to dry food and water.
Paw cold response threshold: This test replicates the clinical test of cold pain perception threshold. Rats are transferred to a testing cage with a wire mesh bottom and allowed to acclimate. A rigid filament attached to a Peltier thermoelectric cooling system is used to stimulate the plantar surface of the hind paw for 5 seconds. The stimulus is repeated 10 times at 2 to 5 minute intervals and the number of paw withdrawal responses is recorded and converted to a response frequency (%). This paradigm is repeated at various stimulation temperatures.
(§2) Dosing procedures. Zucker Fatty Diabetic rats are found to develop hyperglycemia over 6-8 weeks. […] Upon confirmation of the presence of painful neuropathy, rats are tested for three measures of hyperalgesia: cold allodynia threshold, tactile hyperalgesia (von Frey filaments), and pressure responses measured by a mechanical von Frey device. All rats are tested in all three assays and all rats receive each of four (4) pre-treatments administered subcutaneously (s.c.) in a vehicle of 10% Trappsol in water. All rats receive treatments in the same order, as follows: vehicle, 1 mg/kg Compound of Ex. 1, 3 mg/kg Compound of Ex. 1, and 10 mg/kg Compound of Ex. 1. Rats receive pre-treatments 30 minutes prior to the start of testing. Hyperalgesia/allodynia measures are recorded from each rat at baseline (0 time), then 1, 2, 3, 4, and 6 h after treatment.
(§3) After the completion of testing of all rats at all dose/conditions for each assay (cold, tactile, and pressure responses) rats are out-fitted with cannulas for intrathecal (i.t.) application of vehicle or Compound of Ex. 1 (1, 3 or 10 μg) directly to spinal cord. All rats are then re-tested in each of the tree assays at each of the 4 pretreatment conditions/doses.

[2] = system: TH (tyrosine hydroxylase); experiment: CNS phosphoprotein profile, TH; conditions: mice nucleus accumbens; Example 1 3 mg/kg at 30 or 60 minutes; haloperidol 2 mg/kg
Description: A comprehensive molecular phosphorylation study is also carried out to examine the central nervous system (CNS) profile of the compound of Example 1. The extent of protein phosphorylation for selected key central nervous system proteins is measured in mice nucleus accumbens.
Mice were killed 30 minutes to 2 hours post-injection by focused microwave cranial irradiation, which preserves brain phosphoprotein as it exists at the time of death. Nucleus accumbens was then dissected from each mouse brain, sliced and frozen in liquid nitrogen. Samples were further prepared for phosphoprotein analysis via SDS-PAGE electrophoresis followed by phosphoprotein-specific immunoblotting, as described in Zhu H, et al., Brain Res. 2010 Jun. 25; 1342:11-23. Phosphorylation at each site was quantified, normalized to total levels of the protein (non-phosphorylated), and expressed as percent of the level of phosphorylation in vehicle-treated control mice.

ZFD rats [3] = experiment: ZFD rat model, electronic von Frey (paw pressure); set-up: unit not given here
Description: as §1
Paw pressure response threshold: This test applies greater force to the plantar hind paw than manual von Frey filaments and may be equated to pressure-induced pain such as that described by diabetic subjects upon standing and walking. Hyperalgesia to this measure develops over several weeks in ZFD rats such that this test can give an assessment of hyperalgesia and drug efficacy that differs from the allodynia measured by manual von Frey filaments. The method is described in detail by Lee-Kubil, Mixcoati-Zecuatl, Jolivalt, & Calcutt, Animal Models of Diabetes-Induced Neuropathic Pain, CURRENT TOPICS IN BEHAVIORAL NEUROSCIENCES 20: 147-170 (2014).
as §2, §3

[4] = Control rats, 10 mg/kg s.c., 0 hr
[5] = Control rats, 10 mg/kg s.c., 1 hr
[6] = Control rats, 10 mg/kg s.c., 2 hr
[7] = Control rats, 10 mg/kg s.c., 4 hr

**Q.** Which “Cold Test response frequency” value (ZFD rats [1]; Control rats, 10 μg i.t., 0 hr) does the source give for O=C1CN2c3c(cccc3[C@@H]3CN(CCCOc4ccc(F)cc4)CC[C@@H]32)N1 [Example 1, (6bR,10aS)-8-(3-(4-fluorophenoxy)propyl)-6b,7,8,9,10,10a-hexahydro-1H-pyrido[3′,4′:4,5]pyrrolo[1,2,3-de]quinoxalin-2(3H)-one] here?
**A.** 17%

**Q.** And the “Cold Test response frequency” value (ZFD rats [1]; Control rats, 10 μg i.t., 1 hr)?
**A.** 11%

**Q.** What about the “Cold Test response frequency” value (ZFD rats [1]; Control rats, 10 μg i.t., 2 hr) of the same compound?
**A.** 20%

**Q.** And the “Cold Test response frequency” value (ZFD rats [1]; Control rats, 10 μg i.t., 4 hr)?
**A.** 14%

**Q.** What about the “Cold Test response frequency” value (ZFD rats [1]; [4]) of the same compound?
**A.** 16%

**Q.** What about the “Cold Test response frequency” value (ZFD rats [1]; [5]) of the same compound?
**A.** 18%

**Q.** And the “Cold Test response frequency” value (ZFD rats [1]; [6])?
**A.** 10%

**Q.** What about the “Cold Test response frequency” value (ZFD rats [1]; [7]) of the same compound?
**A.** 10%

**Q.** And the “Cold Test response frequency” value (ZFD rats [1]; ZFD rats, 1 μg i.t., 0 hr)?
**A.** 93%

**Q.** And the “Cold Test response frequency” value (ZFD rats [1]; ZFD rats, 1 μg i.t., 1 hr)?
**A.** 90%

**Q.** What about the “Cold Test response frequency” value (ZFD rats [1]; ZFD rats, 1 μg i.t., 2 hr) of the same compound?
**A.** 83%

**Q.** And the “Cold Test response frequency” value (ZFD rats [1]; ZFD rats, 1 μg i.t., 4 hr)?
**A.** 83%

**Q.** What about the “Cold Test response frequency” value (ZFD rats [1]; ZFD rats, 3 μg i.t., 0 hr) of the same compound?
**A.** 77%

**Q.** What about the “Cold Test response frequency” value (ZFD rats [1]; ZFD rats, 3 μg i.t., 1 hr) of the same compound?
**A.** 37%

**Q.** What about the “Cold Test response frequency” value (ZFD rats [1]; ZFD rats, 3 μg i.t., 2 hr) of the same compound?
**A.** 27%

**Q.** And the “Cold Test response frequency” value (ZFD rats [1]; ZFD rats, 3 μg i.t., 4 hr)?
**A.** 70%

**Q.** And the “Cold Test response frequency” value (ZFD rats [1]; ZFD rats, 10 μg i.t., 0 hr)?
**A.** 93%

**Q.** What about the “Cold Test response frequency” value (ZFD rats [1]; ZFD rats, 10 μg i.t., 1 hr) of the same compound?
**A.** 33%

**Q.** What about the “Cold Test response frequency” value (ZFD rats [1]; ZFD rats, 10 μg i.t., 2 hr) of the same compound?
**A.** 33%

**Q.** And the “Cold Test response frequency” value (ZFD rats [1]; ZFD rats, 10 μg i.t., 4 hr)?
**A.** 77%

**Q.** And the “Cold Test response frequency” value (ZFD rats [1]; ZFD rats, 1 mg/kg s.c., 0 hr)?
**A.** 88%

**Q.** What about the “Cold Test response frequency” value (ZFD rats [1]; ZFD rats, 1 mg/kg s.c., 1 hr) of the same compound?
**A.** 96%

**Q.** And the “Cold Test response frequency” value (ZFD rats [1]; ZFD rats, 1 mg/kg s.c., 2 hr)?
**A.** 94%

**Q.** What about the “Cold Test response frequency” value (ZFD rats [1]; ZFD rats, 1 mg/kg s.c., 4 hr) of the same compound?
**A.** 86%

**Q.** What about the “Cold Test response frequency” value (ZFD rats [1]; ZFD rats, 3 mg/kg s.c., 0 hr) of the same compound?
**A.** 88%

**Q.** What about the “Cold Test response frequency” value (ZFD rats [1]; ZFD rats, 3 mg/kg s.c., 1 hr) of the same compound?
**A.** 32%

**Q.** What about the “Cold Test response frequency” value (ZFD rats [1]; ZFD rats, 3 mg/kg s.c., 2 hr) of the same compound?
**A.** 26%

**Q.** And the “Cold Test response frequency” value (ZFD rats [1]; ZFD rats, 3 mg/kg s.c., 4 hr)?
**A.** 90%

**Q.** What about the “Cold Test response frequency” value (ZFD rats [1]; ZFD rats, 10 mg/kg s.c., 0 hr) of the same compound?
**A.** 90%

**Q.** And the “Cold Test response frequency” value (ZFD rats [1]; ZFD rats, 10 mg/kg s.c., 1 hr)?
**A.** 28%

**Q.** What about the “Cold Test response frequency” value (ZFD rats [1]; ZFD rats, 10 mg/kg s.c., 2 hr) of the same compound?
**A.** 16%

**Q.** What about the “Cold Test response frequency” value (ZFD rats [1]; ZFD rats, 10 mg/kg s.c., 4 hr) of the same compound?
**A.** 48%

**Q.** What about the “increase in TH phosphorylation at Ser40” value [2] of the same compound?
**A.** no significant effect

**Q.** What about the “Electronic von Frey (paw pressure response)” value (“Electronic von Frey” below) (ZFD rats [3]; Control rats, 10 μg i.t., 0 hr) of the same compound?
**A.** 63.68

**Q.** What about the “Electronic von Frey” value (ZFD rats [3]; Control rats, 10 μg i.t., 1 hr) of the same compound?
**A.** 60.91

**Q.** And the “Electronic von Frey” value (ZFD rats [3]; Control rats, 10 μg i.t., 2 hr)?
**A.** 62.10

**Q.** And the “Electronic von Frey” value (ZFD rats [3]; Control rats, 10 μg i.t., 4 hr)?
**A.** 59.56

**Q.** What about the “Electronic von Frey” value (ZFD rats [3]; [4]) of the same compound?
**A.** 58.64

**Q.** And the “Electronic von Frey” value (ZFD rats [3]; [5])?
**A.** 55.73

**Q.** What about the “Electronic von Frey” value (ZFD rats [3]; [6]) of the same compound?
**A.** 60.74

**Q.** What about the “Electronic von Frey” value (ZFD rats [3]; [7]) of the same compound?
**A.** 62.89

**Q.** What about the “Electronic von Frey” value (ZFD rats [3]; ZFD rats, 1 μg i.t., 0 hr) of the same compound?
**A.** 24.76

**Q.** What about the “Electronic von Frey” value (ZFD rats [3]; ZFD rats, 1 μg i.t., 1 hr) of the same compound?
**A.** 34.77

**Q.** And the “Electronic von Frey” value (ZFD rats [3]; ZFD rats, 1 μg i.t., 2 hr)?
**A.** 30.09

**Q.** And the “Electronic von Frey” value (ZFD rats [3]; ZFD rats, 1 μg i.t., 4 hr)?
**A.** 28.19

**Q.** What about the “Electronic von Frey” value (ZFD rats [3]; ZFD rats, 3 μg i.t., 0 hr) of the same compound?
**A.** 33.23

**Q.** What about the “Electronic von Frey” value (ZFD rats [3]; ZFD rats, 3 μg i.t., 1 hr) of the same compound?
**A.** 53.94

**Q.** What about the “Electronic von Frey” value (ZFD rats [3]; ZFD rats, 3 μg i.t., 2 hr) of the same compound?
**A.** 50.17

**Q.** What about the “Electronic von Frey” value (ZFD rats [3]; ZFD rats, 3 μg i.t., 4 hr) of the same compound?
**A.** 39.95

**Q.** And the “Electronic von Frey” value (ZFD rats [3]; ZFD rats, 10 μg i.t., 0 hr)?
**A.** 24.68

**Q.** What about the “Electronic von Frey” value (ZFD rats [3]; ZFD rats, 10 μg i.t., 1 hr) of the same compound?
**A.** 46.37

**Q.** What about the “Electronic von Frey” value (ZFD rats [3]; ZFD rats, 10 μg i.t., 2 hr) of the same compound?
**A.** 45.01

**Q.** And the “Electronic von Frey” value (ZFD rats [3]; ZFD rats, 10 μg i.t., 4 hr)?
**A.** 32.33

**Q.** And the “Electronic von Frey” value (ZFD rats [3]; ZFD rats, 1 mg/kg s.c., 0 hr)?
**A.** 28.36

**Q.** And the “Electronic von Frey” value (ZFD rats [3]; ZFD rats, 1 mg/kg s.c., 1 hr)?
**A.** 32.99

**Q.** And the “Electronic von Frey” value (ZFD rats [3]; ZFD rats, 1 mg/kg s.c., 2 hr)?
**A.** 27.35

**Q.** What about the “Electronic von Frey” value (ZFD rats [3]; ZFD rats, 1 mg/kg s.c., 4 hr) of the same compound?
**A.** 24.67

**Q.** What about the “Electronic von Frey” value (ZFD rats [3]; ZFD rats, 3 mg/kg s.c., 0 hr) of the same compound?
**A.** 33.72

**Q.** What about the “Electronic von Frey” value (ZFD rats [3]; ZFD rats, 3 mg/kg s.c., 1 hr) of the same compound?
**A.** 54.21

**Q.** What about the “Electronic von Frey” value (ZFD rats [3]; ZFD rats, 3 mg/kg s.c., 2 hr) of the same compound?
**A.** 58.41

**Q.** And the “Electronic von Frey” value (ZFD rats [3]; ZFD rats, 3 mg/kg s.c., 4 hr)?
**A.** 30.01

**Q.** What about the “Electronic von Frey” value (ZFD rats [3]; ZFD rats, 10 mg/kg s.c., 0 hr) of the same compound?
**A.** 22.69

**Q.** And the “Electronic von Frey” value (ZFD rats [3]; ZFD rats, 10 mg/kg s.c., 1 hr)?
**A.** 56.02

**Q.** What about the “Electronic von Frey” value (ZFD rats [3]; ZFD rats, 10 mg/kg s.c., 2 hr) of the same compound?
**A.** 58.15

**Q.** What about the “Electronic von Frey” value (ZFD rats [3]; ZFD rats, 10 mg/kg s.c., 4 hr) of the same compound?
**A.** 39.32
